According to paper PMC10257182, “Discovery of senolytics using machine learning” (Nature Communications, 2023):
“And” between values parts separate entries of the source, which are not always exact repeats. Equal entries are not always repeated. Where two headings read alike, the source gives them in different places.

Columns and labels:
Format in all cases: cell-based, human
[1] = system: senescent IMR90 ER:RAS cells (4-OHT-induced); assay: Nuclei count (Hoechst, high content imaging) senolytic assay, oncogene-induced senescence (OIS) model, senescent cells; conditions: for senolytic activity (in words): experimental screen
Method in brief: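 Readout is automated image-based counting of Hoechst-stained nuclei per well, with loss of cells relative to untreated wells taken as cell death. Senescent (4-OHT, 100 nM) and control IMR90 ER:RAS cells were exposed to compounds for 72 h at 10 nM to 10 μM final.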

[2] = system: non-senescent control A549 cells; assay: Nuclei count senolytic assay, TIS model, non-senescent control cells; conditions: for viability at 10 µM / viability at 4.68 µM / viability at 2.19 µM / viability at 1 µM / viability at 0.468 µM / viability at 0.219 µM / viability at 0.1 µM / viability at 0.0468 µM / viability at 0.0219 µM / viability at 0.01 µM: A549, Control cells, mean, read-out: Mean % Cell Survival; for % Cell Survival: control cells, single replicate
Method in brief: (§1)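 Read-out is the imaged count of Hoechst 33342-stained nuclei (2 μg/ml final) in fixed, permeabilised A549 cells. Senescent cells had received etoposide at 100 μM for 48 h plus three days recovery in normal media. Compound exposure lasted 72 h across a 10-point […] range, 10 μM to 10 nM.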

[3] = system: senescent A549 cells (etoposide-induced); assay: Nuclei count senolytic assay, therapy-induced senescence (TIS) model, senescent cells; conditions: for viability at 10 µM / viability at 4.68 µM / viability at 2.19 µM / viability at 1 µM / viability at 0.468 µM / viability at 0.219 µM / viability at 0.1 µM / viability at 0.0468 µM / viability at 0.0219 µM / viability at 0.01 µM: A549, Senescent cells, mean, read-out: Mean % Cell Survival; for % Cell Survival: senescence cells, single replicate
Method in brief: as §1

[4] = Homo sapiens, IMR-90, 72 h, Senescent, log (dose) [M] -5, 72 h, mean n=3 (Fig 3C), read-out: Mean % Cell Survival
[5] = Homo sapiens, IMR-90, 72 h, Senescent, log (dose) [M] -5.33, 72 h, mean n=3 (Fig 3C), read-out: Mean % Cell Survival
[6] = Homo sapiens, IMR-90, 72 h, Senescent, log (dose) [M] -5.66, 72 h, mean n=3 (Fig 3C), read-out: Mean % Cell Survival
[7] = Homo sapiens, IMR-90, 72 h, Senescent, log (dose) [M] -6, 72 h, mean n=3 (Fig 3C), read-out: Mean % Cell Survival
[8] = Homo sapiens, IMR-90, 72 h, Senescent, log (dose) [M] -6.33, 72 h, mean n=3 (Fig 3C), read-out: Mean % Cell Survival
[9] = Homo sapiens, IMR-90, 72 h, Senescent, log (dose) [M] -6.66, 72 h, mean n=3 (Fig 3C), read-out: Mean % Cell Survival
[10] = Homo sapiens, IMR-90, 72 h, Senescent, log (dose) [M] -7, 72 h, mean n=3 (Fig 3C), read-out: Mean % Cell Survival
[11] = Homo sapiens, IMR-90, 72 h, Senescent, log (dose) [M] -7.33, 72 h, mean n=3 (Fig 3C), read-out: Mean % Cell Survival
[12] = Homo sapiens, IMR-90, 72 h, Senescent, log (dose) [M] -7.66, 72 h, mean n=3 (Fig 3C), read-out: Mean % Cell Survival
[13] = Homo sapiens, IMR-90, 72 h, Senescent, log (dose) [M] -8, 72 h, mean n=3 (Fig 3C), read-out: Mean % Cell Survival
[14] = Homo sapiens, log (dose) [M] -5
[15] = Homo sapiens, log (dose) [M] -5.33
[16] = Homo sapiens, log (dose) [M] -5.66
[17] = Homo sapiens, log (dose) [M] -6
[18] = Homo sapiens, log (dose) [M] -6.33
[19] = Homo sapiens, log (dose) [M] -6.66
[20] = Homo sapiens, log (dose) [M] -7
[21] = Homo sapiens, log (dose) [M] -7.33
[22] = Homo sapiens, log (dose) [M] -7.66
[23] = Homo sapiens, log (dose) [M] -8

O=c1c(O)c(-c2ccc(O)cc2O)oc2cc(O)cc(O)c12 [Morin, morin]
viability at 10 µM [1, 4]: 75%
viability at 4.677 µM [1, 5]: 90.7%
viability at 2.188 µM [1, 6]: 96.2%
viability at 1 µM [1, 7]: 91.1%
viability at 0.4677 µM [1, 8]: 91.7%
viability at 0.2188 µM [1, 9]: 92.4%
viability at 0.1 µM [1, 10]: 96.6%
viability at 0.04677 µM [1, 11]: 95.3%
viability at 0.02188 µM [1, 12]: 92.3%
viability at 0.01 µM [1, 13]: 94.2%
viability at 10 µM ([1]; Homo sapiens, IMR-90, Senescent cells, log (dose) [M] -5, individual replicates, SUP FIG 4C, read-out: % Cell Survival): 75.9%
viability at 0.04677 µM ([1]; Homo sapiens, IMR-90, Senescent cells, log (dose) [M] -7.33, individual replicates, SUP FIG 4C, read-out: % Cell Survival): 87%
viability at 0.02188 µM ([1]; Homo sapiens, IMR-90, Senescent cells, log (dose) [M] -7.66, individual replicates, SUP FIG 4C, read-out: % Cell Survival): 91.1%
viability at 2.188 µM ([1]; Homo sapiens, IMR-90, Senescent, log (dose) [M] -5.66, read-out: % Cell Survival): 55.7%
viability at 1 µM ([1]; Homo sapiens, IMR-90, Senescent, log (dose) [M] -6, read-out: % Cell Survival): 62.4%
viability at 0.2188 µM ([1]; Homo sapiens, IMR-90, Senescent, log (dose) [M] -6.66, read-out: % Cell Survival): 63.2%
viability at 0.02188 µM ([1]; Homo sapiens, IMR-90, Senescent, log (dose) [M] -7.66, read-out: % Cell Survival): 95.7%
viability at 0.01 µM ([1]; Homo sapiens, IMR-90, Senescent, log (dose) [M] -8, read-out: % Cell Survival): 93.7%
senolytic activity (in words) ([1]; OIS IMR90 ER:RAS): inactive
viability at 10 µM [2, 14]: 33.9%
viability at 4.68 µM [2, 15]: 98.9%
viability at 2.19 µM [2, 16]: 63.6%
viability at 1 µM [2, 17]: 115%
viability at 0.468 µM [2, 18]: 104%
viability at 0.219 µM [2, 19]: 99.4%
viability at 0.1 µM [2, 20]: 94.4%
viability at 0.0468 µM [2, 21]: 111%
viability at 0.0219 µM [2, 22]: 67.6%
viability at 0.01 µM [2, 23]: 67.4%
viability at 10 µM [3, 14]: 87.9%
viability at 4.68 µM [3, 15]: 93.5%
viability at 2.19 µM [3, 16]: 59.5%
viability at 1 µM [3, 17]: 67.1%
viability at 0.468 µM [3, 18]: 88.2%
viability at 0.219 µM [3, 19]: 69.3%
viability at 0.1 µM [3, 20]: 84.2%
viability at 0.0468 µM [3, 21]: 54.5%
viability at 0.0219 µM [3, 22]: 87.7%
viability at 0.01 µM [3, 23]: 95.1%

CO[C@H]1C[C@H](O[C@H]2CC[C@@]3(C)[C@H](CC[C@@H]4[C@@H]3CC[C@]3(C)[C@@H](C5=CC(=O)OC5)[C@@H](OC(C)=O)C[C@]43O)C2)O[C@@H](C)[C@@H]1O [Oleandrin, oleandrin]
viability at 10 µM [1, 4]: 2.6%
viability at 4.677 µM [1, 5]: 4.06%
viability at 2.188 µM [1, 6]: 5.74%
viability at 1 µM [1, 7]: 4.49%
viability at 0.4677 µM [1, 8]: 5.02%
viability at 0.2188 µM [1, 9]: 3.64%
viability at 0.1 µM [1, 10]: 3.83%
viability at 0.04677 µM [1, 11]: 6.59%
viability at 0.02188 µM [1, 12]: 13.4%
viability at 0.01 µM [1, 13]: 87.9%
viability at 10 µM ([1]; Homo sapiens, IMR-90, senescence, log (dose) [M] -5, individual replicates (Fig 3D), read-out: % Cell Survival): 3.12%
viability at 4.677 µM ([1]; Homo sapiens, IMR-90, senescence, log (dose) [M] -5.33, individual replicates (Fig 3D), read-out: % Cell Survival): 4.77%
viability at 2.188 µM ([1]; Homo sapiens, IMR-90, senescence, log (dose) [M] -5.66, individual replicates (Fig 3D), read-out: % Cell Survival): 7.52%
viability at 1 µM ([1]; Homo sapiens, IMR-90, senescence, log (dose) [M] -6, individual replicates (Fig 3D), read-out: % Cell Survival): 5.5%
viability at 0.4677 µM ([1]; Homo sapiens, IMR-90, senescence, log (dose) [M] -6.33, individual replicates (Fig 3D), read-out: % Cell Survival): 4.4%
viability at 0.2188 µM ([1]; Homo sapiens, IMR-90, senescence, log (dose) [M] -6.66, individual replicates (Fig 3D), read-out: % Cell Survival): 4.04%
viability at 0.1 µM ([1]; Homo sapiens, IMR-90, senescence, log (dose) [M] -7, individual replicates (Fig 3D), read-out: % Cell Survival): 4.95%
viability at 0.02188 µM ([1]; Homo sapiens, IMR-90, senescence, log (dose) [M] -7.66, individual replicates (Fig 3D), read-out: % Cell Survival): 12.3%
IC50 ([1]; Homo sapiens, IMR-90, OIS model, 4-OHT-induced IMR90 ER:RAS, nuclei count, 72 h): 0.014 µM
dose showing the clearest / optimal senolytic effect ([1]; OIS IMR90 ER:RAS, Hoechst nuclei count, marginal effect on normal cells): 21.5 nM
senolytic activity (in words) ([1]; OIS IMR90 ER:RAS): clear senolytic action
senolytic index (SI) ([1]; ratio between the IC50 of control cells and the IC50 of senescent cells, OIS IMR90 ER:RAS): 5.8
viability at 10 µM [2, 14]: 1.02%
viability at 4.68 µM [2, 15]: 1.71%
viability at 2.19 µM [2, 16]: 1.34%
viability at 1 µM [2, 17]: 1.19%
viability at 0.468 µM [2, 18]: 1.55%
viability at 0.219 µM [2, 19]: 2.98%
viability at 0.1 µM [2, 20]: 6.37%
viability at 0.0468 µM [2, 21]: 4.07%
viability at 0.0219 µM [2, 22]: 25.8%
viability at 0.01 µM [2, 23]: 34.2%
IC50 ([2]; Homo sapiens, TIS model, non-senescent A549, nuclei count, 72 h): 0.0195 µM
% Cell Survival ([2]; log (dose) [M] -5): 0.2886% and 2.786% and 0%
% Cell Survival ([2]; log (dose) [M] -5.33): 1.948% and 1.5% and 1.695%
% Cell Survival ([2]; log (dose) [M] -5.66): 1.659% and 1.071% and 1.304%
% Cell Survival ([2]; log (dose) [M] -6): 0% and 2.071% and 1.499%
% Cell Survival ([2]; log (dose) [M] -6.33): 1.371% and 2.429% and 0.8475%
% Cell Survival ([2]; log (dose) [M] -6.66): 4.113% and 2.929% and 1.89%
% Cell Survival ([2]; log (dose) [M] -7): 5.267% and 9.857% and 3.977%
% Cell Survival ([2]; log (dose) [M] -7.33): 0% and 0.07143% and 12.1252%
% Cell Survival ([2]; log (dose) [M] -7.66): 49.3506% and 28.0313%
% Cell Survival ([2]; log (dose) [M] -8): 102.742%
viability at 10 µM [3, 14]: 0.749%
viability at 4.68 µM [3, 15]: 1.57%
viability at 2.19 µM [3, 16]: 1.08%
viability at 1 µM [3, 17]: 1.7%
viability at 0.468 µM [3, 18]: 1.38%
viability at 0.219 µM [3, 19]: 2.19%
viability at 0.1 µM [3, 20]: 3.51%
viability at 0.0468 µM [3, 21]: 9.16%
viability at 0.0219 µM [3, 22]: 3.39%
viability at 0.01 µM [3, 23]: 26.8%
IC50 ([3]; Homo sapiens, TIS model, etoposide-induced senescent A549, nuclei count, 72 h): 0.0054 µM
concentration at which a senolytic effect was reached ([3]; TIS A549, Hoechst labelling, marginal effect on normal cells): 10 nM
senolytic action (in words) ([3]; experimental screen, TIS senescent A549): strong senolytic action
% Cell Survival ([3]; log (dose) [M] -5): 1.111% and 0.1906% and 0.9453%
% Cell Survival ([3]; log (dose) [M] -5.33): 1.898% and 1.858% and 0.9453%
% Cell Survival ([3]; log (dose) [M] -5.66): 1.065% and 1.477% and 0.6965%
% Cell Survival ([3]; log (dose) [M] -6): 2.222% and 1.477% and 1.393%
% Cell Survival ([3]; log (dose) [M] -6.33): 1.806% and 1.286% and 1.045%
% Cell Survival ([3]; log (dose) [M] -6.66): 2.083% and 3.383% and 1.095%
% Cell Survival ([3]; log (dose) [M] -7): 3.194% and 5.908% and 1.443%
% Cell Survival ([3]; log (dose) [M] -7.33): 3.7037% and 20.1525% and 3.632%
% Cell Survival ([3]; log (dose) [M] -7.66): 6.2037% and 0.09528% and 3.8806%
% Cell Survival ([3]; log (dose) [M] -8): 34.3519% and 21.3435% and 24.6766%
